Test results published in PubChem BioAssay AID2060508 (Molecular Pharmacology Branch, DTP, NCI, 2025).

Tested on: 454973-116-R2-J3-PDC spheroids, viability, % test/control
Assay: Anticancer human tumor 454973-116-R2-J3-PDC patient-derived pancreatic carcinoma cell line growth inhibition [GQUAD]
Conditions: spheroids with HUVEC and MSC; for IC50: curve of first compound; for viability, T/C: stronger effect = lower value
Outline: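 Tumor cells were grown as complex spheroids with HUVEC endothelial cells and mesenchymal stem cells as stroma. G-quadruplex stabilizers were combined with targeted agents over half-log dilutions from near the clinical Cmax, or from 10 microM.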
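Also: spheroids exposed to compounds for seven days.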
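For viability, T/C in this document: 100% = DMSO vehicle control viability.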

SMILES: CC1COCCN1c1cc(C2(S(C)(=N)=O)CC2)nc(-c2ccnc3[nH]ccc23)n1 (configuration not stated) + Cc1[nH]c2ccc(F)cc2c1-c1nc2c3cccnc3c3ncccc3c2[nH]1
- IC50 (second compound 0.0316 µM): 5.87 µM
- IC50 (second compound 0.1 µM): 5.36 µM
- IC50 (second compound 0.316 µM): 5.07 µM
- IC50 (second compound 1 µM): 6.49 µM
- IC50 (second compound 3.16 µM): 4.68 µM
- IC50 (second compound 10 µM): 3.49 µM
- viability, T/C (second compound 0.0316 µM, first compound 0.0316 µM): 101%
- viability, T/C (second compound 0.0316 µM, first compound 0.1 µM): 102%
- viability, T/C (second compound 0.0316 µM, first compound 0.316 µM): 121%
- viability, T/C (second compound 0.0316 µM, first compound 1 µM): 96.5%
- viability, T/C (second compound 0.0316 µM, first compound 3.16 µM): 76%
- viability, T/C (second compound 0.0316 µM, first compound 10 µM): 28.1%
- viability, T/C (second compound 0.1 µM, first compound 0.0316 µM): 106%
- viability, T/C (second compound 0.1 µM, first compound 0.1 µM): 96.9%
- viability, T/C (second compound 0.1 µM, first compound 0.316 µM): 110%
- viability, T/C (second compound 0.1 µM, first compound 1 µM): 107%
- viability, T/C (second compound 0.1 µM, first compound 3.16 µM): 68.7%
- viability, T/C (second compound 0.1 µM, first compound 10 µM): 27.9%
- viability, T/C (second compound 0.316 µM, first compound 0.0316 µM): 99.7%
- viability, T/C (second compound 0.316 µM, first compound 0.1 µM): 110%
- viability, T/C (second compound 0.316 µM, first compound 0.316 µM): 110%
- viability, T/C (second compound 0.316 µM, first compound 1 µM): 103%
- viability, T/C (second compound 0.316 µM, first compound 3.16 µM): 64.8%
- viability, T/C (second compound 0.316 µM, first compound 10 µM): 28.7%
- viability, T/C (second compound 1 µM, first compound 0.0316 µM): 106%
- viability, T/C (second compound 1 µM, first compound 0.1 µM): 104%
- viability, T/C (second compound 1 µM, first compound 0.316 µM): 109%
- viability, T/C (second compound 1 µM, first compound 1 µM): 108%
- viability, T/C (second compound 1 µM, first compound 3.16 µM): 72.6%
- viability, T/C (second compound 1 µM, first compound 10 µM): 36.5%
- viability, T/C (second compound 3.16 µM, first compound 0.0316 µM): 98.3%
- viability, T/C (second compound 3.16 µM, first compound 0.1 µM): 105%
- viability, T/C (second compound 3.16 µM, first compound 0.316 µM): 95.7%
- viability, T/C (second compound 3.16 µM, first compound 1 µM): 87%
- viability, T/C (second compound 3.16 µM, first compound 3.16 µM): 60.2%
- viability, T/C (second compound 3.16 µM, first compound 10 µM): 30.3%
- viability, T/C (second compound 10 µM, first compound 0.0316 µM): 86.7%
- viability, T/C (second compound 10 µM, first compound 0.1 µM): 84%
- viability, T/C (second compound 10 µM, first compound 0.316 µM): 89.6%
- viability, T/C (second compound 10 µM, first compound 1 µM): 86.2%
- viability, T/C (second compound 10 µM, first compound 3.16 µM): 51.8%
- viability, T/C (second compound 10 µM, first compound 10 µM): 30.1%
